Measurements as given in the supplement of paper PMC10307832.

Tests used:
Assay in all cases: relative viability (nuclei count vs DMSO), 5 days (fraction); higher = more cells survive
[1] = compound: Cc1nc(Nc2ncc(C(=O)Nc3c(C)cccc3Cl)s2)cc(N2CCN(CCO)CC2)n1 [Dasatinib] + COc1cccc2cc(-c3nc([C@H]4CC[C@H](C(=O)O)CC4)n4ncnc(N)c34)[nH]c12 [OSI-027] (partner 0.5 µM)
Method in brief: (§1)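 One day after seeding in 1536-well plates, lung cancer cell lines were dosed by pin tool. Dosing was either single-drug or a fixed anchor-drug dose plus five library-drug doses (not always all listed) in √10 steps. After 5 days, nuclei were stained in one fix-and-stain step and counted on 4× images, and relative viability is the nuclei count of treated wells over that of vehicle wells, given as the median of duplicate plates.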

[2] = compound: Cc1nc(Nc2ncc(C(=O)Nc3c(C)cccc3Cl)s2)cc(N2CCN(CCO)CC2)n1 [Dasatinib] + CS(=O)(=O)CCNCc1ccc(-c2ccc3ncnc(Nc4ccc(OCc5cccc(F)c5)c(Cl)c4)c3c2)o1 [Lapatinib] (partner 2 µM)
Method in brief: as §1

[3] = compound: Cc1nc(Nc2ncc(C(=O)Nc3c(C)cccc3Cl)s2)cc(N2CCN(CCO)CC2)n1 [Dasatinib] + N=C(N)NC(=N)NCCc1ccccc1 [Phenformin] (partner 250 µM)
Method in brief: as §1

[4] = compound: Cc1nc(Nc2ncc(C(=O)Nc3c(C)cccc3Cl)s2)cc(N2CCN(CCO)CC2)n1 [Dasatinib] + C[C@]1(O)C[C@@H](c2nc(-c3ccc4ccc(-c5ccccc5)nc4c3)c3c(N)nccn32)C1 [Linsitinib] (partner 1 µM)
Method in brief: as §1

Cell Line	relative viability ([1]; first compound 0.005 µM)	relative viability ([1]; first compound 0.01581 µM)	relative viability ([1]; first compound 0.05 µM)	relative viability ([1]; first compound 0.1581 µM)	relative viability ([1]; first compound 0.5 µM)	relative viability ([2]; first compound 0.005 µM)	relative viability ([2]; first compound 0.01581 µM)	relative viability ([2]; first compound 0.05 µM)	relative viability ([2]; first compound 0.1581 µM)	relative viability ([2]; first compound 0.5 µM)	relative viability ([3]; first compound 0.005 µM)	relative viability ([3]; first compound 0.01581 µM)	relative viability ([3]; first compound 0.05 µM)	relative viability ([3]; first compound 0.1581 µM)	relative viability ([3]; first compound 0.5 µM)	relative viability ([4]; first compound 0.005 µM)	relative viability ([4]; first compound 0.01581 µM)	relative viability ([4]; first compound 0.05 µM)	relative viability ([4]; first compound 0.1581 µM)	relative viability ([4]; first compound 0.5 µM)
NCI-H2087	0.571	0.607	0.697	0.531	0.278	1.03	0.839	0.95	1.09	0.605	0.517	0.461	0.562	0.343	0.161	0.929	0.772	1.04	0.862	0.469
HCC-366	0.662	0.338	0.365	0.375	0.243	0.99	0.713	0.695	0.446	0.337	0.606	0.571	0.484	0.426	0.336	0.122	0.0525	0.067	0.0321	0.04
NCI-H2126	0.722	0.551	0.623	0.611	0.307	0.748	0.584	0.669	0.525	0.328	0.56	0.521	0.471	0.39	0.285	0.636	0.582	0.589	0.422	0.264
SK-LU-1	0.271	0.167	0.167	0.14	0.152	0.467	0.53	0.424	0.305	0.298	0.342	0.257	0.193	0.179	0.148	0.636	0.445	0.435	0.261	0.242
